Reference: US9907856B2, “Carboxymethylcellulose-peptide conjugates and methods for using the same” (The Regents of the University of California, priority 2013, dated 2018)
Ends that are not written are not given here.

Columns and labels:
[1] = tested on: Chronic Myocardial Infarction Model; assay: Echocardiography in chronic myocardial infarction model after polymer injection; assay type: in vivo, Sprague-Dawley rats; details: rat; for Diastolic volume / MI wall thickness / Systolic volume: 5 weeks post-treatment vs baseline; for Fractional area change (FAC), 5 weeks post-treatment / LV ejection fraction, 5 weeks post-treatment: 100 μL injected into infarcted LV, 5 weeks post-treatment (10 weeks post-MI); for Fractional area change (FAC), 5 weeks post-treatment / LV ejection fraction, 5 weeks post-treatment / Fractional area change (FAC), baseline / LV ejection fraction, baseline: mean ± SD; for Fractional area change (FAC), baseline / LV ejection fraction, baseline: baseline 5 weeks post-MI, before treatment
Protocol: (§1) All surgical procedures were approved by the Committee for Animal Research of the University of California San Francisco (San Francisco, Calif.). Female Sprague-Dawley rats (225-250 g) were anesthetized with isoflurane. The chest was opened by a median sternotomy, and a single stitch of 7-0 Ticron suture (United States Surgical division of Tyco Healthcare, Norwalk, Conn.) was introduced around the left anterior descending (LAD) coronary artery and tightened to occlude for 30 min. before re-perfusing the vessel (Yu et al, J Thorac Cardiovasc Surg. 2009 Jan. 1, 2009; 137(1):180-7; Christman et a, J Am Coll Cardiol. 2004; 44(3):654-60; Christman et al, Tissue Eng. 2004; 10(3-4):403-9; Huang et al, Tissue Eng. 2005; 11(11-12):1860-6; Sievers et al, Magn Reson Med. 1989; 10:172-81; and Yu et al, Biomaterials. 2009; 30(5):751-6; which are hereby incorporated by reference in their entirety). Cardiac monitoring during the LAD occlusion confirmed the presence of myocardial injury as indicated by ST-elevation. The chest was then closed and the animal was allowed to recover for 5 weeks in order to allow for a LV aneurysm to fully develop. Transthoracic echocardiography was performed 5 weeks post-MI and 5 weeks post-treatment as previously described (Yu et al, J Thorac Cardiovasc Surg. 2009 Jan. 1, 2009; 137(1):180-7; and Litwin et al, Circulation. 1994; 89:345-54; which are hereby incorporated by reference in their entirety).
(§2) Five weeks post-MI and prior to treatment, we verified the LV aneurysmal formation and compromised LV function via echocardiography. The rats were randomized into MC:CMC, MC:CMC-RGD, MC:CMC-HepIII, or phosphate-buffered saline (PBS) control groups (N=8-9 rats/group). Using a closed chest echocardiography-guided injection technique (Springer et al, American Journal of Physiology—Heart and Circulatory Physiology. Sep. 1, 2005; 289(3):H1307-H14; which is hereby incorporated by reference in its entirety), 100 μL of polymer or PBS solution was injected into the infracted LV region of each heart, using a 1 mL syringe system and a 25-gauge needle.

[2] = Rheology studies of 5:1 MC:CMC polymer blends; assay type: physicochemical; details: for Gelling temperature: 5:1 MC:CMC polymer blends, intersection of elastic and viscous modulus plots, mean ± SEM; for Effect of peptide conjugation on viscoelastic properties of the polymer: 5:1 blend, 20-40° C., vs unconjugated polymer
Protocol: Rheology measurements (Advanced Rheometer AR2000, TA Instruments, New Castle, Del.) were done on MC:CMC, MC:CMC-RGD, and MC:CMC-HepIII co-polymers mixed at a 5:1 ratio. The elastic modulus and viscous modulus were determined for temperatures ranging from 20-40° C., with 1° C. increments. The equilibration time was set at 1 min. and the frequency was set at 1 Hz. The gelling temperature was defined as the point of intersection between the plot for the elastic modulus and the plot for the viscous modulus. Measurements were done in triplicate.

[3] = tested on: Chronic Myocardial Infarction Model; assay: Histology/immunohistochemistry of infarct region (infarct size, angiogenesis, cardiac cells); assay type: in vivo, Sprague-Dawley rats; details: rat, 5 weeks post-treatment; for Density of cardiomyocytes within the infarct region / Infarct size: compared to PBS negative control; for Capillary density in the infarct region: CD31 staining; for Capillary density in the infarct region / Arteriole density within the infarct region: mean ± SD; for Infarct size: Masson's trichrome; for Arteriole density within the infarct region: α-smooth muscle actin staining
Protocol: as §1, §2
Five weeks post-treatment (10 weeks post-MI), the rats were euthanized and their hearts were harvested, rinsed in cold saline, blotted-dry and fresh frozen in Tissue Tek O.C.T. freezing medium (Sakura Finetek, Torrance, Calif.). The hearts were sectioned into 10 μm slices. Sequential slides spanning the LV region were stained with Masson's trichrome stain and were used for morphological assessment of the infarct size as previously described (Christman et al, J Am Coll Cardiol. 2004; 44(3):654-60). Angiogenesis, arteriogenesis, and the number of cardiac cells within the infarct region were examined by immunohistochemical (IHC) staining with mouse monoclonal anti-CD31 (BD Biosciences Pharmingen, San Diego, Calif.) to visualize capillaries, mouse monoclonal anti-α-smooth muscle actin (Sigma, St. Louis, Mo.) to detect arterioles (Virag et al, Am J Pathol. 2003 Dec. 1, 2003; 163(6):2433-40; which is hereby incorporated by reference in its entirety), and mouse monoclonal anti-rat cardiac α-myosin heavy chain (Panorama Research Institute, Mountain View, Calif.) to detect the cardiac cells. The staining assay was performed using mouse-on-rat HRP-polymer (Biocare Medical, Concord, Calif.) on slides that were sequential to the slides stained with trichrome. Capillaries in the infarct region were identified as a single layer of CD31-positive cells with flattened morphology. Vessel density, cardiac cell density, and nuclei density was calculated on the basis of 5 high magnification fields per section that spanned the infarct and averaged among 5 sections for each sample. Arterioles within or bordering the infarct were identified as staining positive for α-smooth muscle actin and as having a visible lumen with a diameter between 10 and 100 μm (Yu et al, J Thorac Cardiovasc Surg. 2009 Jan. 1, 2009; 137(1):180-7; and Christman et a, J Am Coll Cardiol. 2004; 44(3):654-60). […]

Substance	Diastolic volume [1]	MI wall thickness [1]	Systolic volume [1]	Fractional area change (FAC), 5 weeks post-treatment [1]	LV ejection fraction, 5 weeks post-treatment [1]	Fractional area change (FAC), baseline [1]	LV ejection fraction, baseline [1]	Gelling temperature [2]	Effect of peptide conjugation on viscoelastic properties of the polymer [2]	Density of cardiomyocytes within the infarct region [3]	Capillary density in the infarct region [3]	Infarct size [3]	Arteriole density within the infarct region [3]
MC:CMC-HepIII: Methylcellulose blended 5:1 with carboxymethylcellulose conjugated to HepIII peptide GEFYFDLRLKGDKY (SEQ ID NO: 2) (also: conjugated to carboxymethylcellulose, blended with methylcellulose (attachment site not given here))	significantly decreased	increase	significantly decreased	45.6±9.63%	43.0±6.25%	36.9±2.60%	36.9±2.18%	26.85 ± 0.6256 °C	decreased stiffness and viscosity	higher density	424±56 capillaries/mm^2	statistically significant reduction	28±10 arterioles/mm^2
MC:CMC-RGD: Methylcellulose blended 5:1 with carboxymethylcellulose conjugated to RGD peptide GRGDSPASSPISC (SEQ ID NO: 1) (also: conjugated to carboxymethylcellulose, blended with methylcellulose (attachment site not given here))	significantly decreased	increase	significantly decreased	44.0±9.26%	42.9±8.29%	36.0±2.44%	34.2±1.91%	26.75 ± 0.4954 °C	did not significantly alter	higher density	472±146 capillaries/mm^2	statistically significant reduction	32±12 arterioles/mm^2
